In BindingDB's records for doi:10.1006/frne.1999.0183 (Royal Victoria Hospital, 1999):
pKi: −log10 of the molar value. Starred links: 1 amine or outer side, 2 acyl side, 3 side chain; linkers in the order of their positions; H or OH if unused. Non-standard residues stand in square brackets, D forms with d. Residues, ends and D or L forms follow the SMILES beside them. *: point of attachment. pNA = O=[N+]([O-])c1ccc(N*)cc1; Nle = CCCC[CH](N)C(=O)O; CO = O=C([*:1])[*:2]

Key:
[1] = molecular target: Somatostatin receptor type 4 (Homo sapiens, UniProt P31391)
Sequence of Somatostatin receptor type 4 (P31391 whole entry): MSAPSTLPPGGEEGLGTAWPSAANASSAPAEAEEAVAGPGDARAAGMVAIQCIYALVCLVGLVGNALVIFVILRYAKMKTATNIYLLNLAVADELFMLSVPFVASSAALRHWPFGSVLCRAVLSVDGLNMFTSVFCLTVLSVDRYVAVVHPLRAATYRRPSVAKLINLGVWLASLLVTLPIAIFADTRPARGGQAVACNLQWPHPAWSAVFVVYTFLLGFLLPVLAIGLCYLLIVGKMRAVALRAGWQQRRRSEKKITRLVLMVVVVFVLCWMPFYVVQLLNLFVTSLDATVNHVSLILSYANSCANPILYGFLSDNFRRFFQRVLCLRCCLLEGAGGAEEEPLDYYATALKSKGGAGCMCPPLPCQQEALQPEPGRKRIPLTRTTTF

[2] = molecular target: Somatostatin receptor type 5 (Homo sapiens, UniProt P35346)
Sequence of Somatostatin receptor type 5 (P35346 whole entry): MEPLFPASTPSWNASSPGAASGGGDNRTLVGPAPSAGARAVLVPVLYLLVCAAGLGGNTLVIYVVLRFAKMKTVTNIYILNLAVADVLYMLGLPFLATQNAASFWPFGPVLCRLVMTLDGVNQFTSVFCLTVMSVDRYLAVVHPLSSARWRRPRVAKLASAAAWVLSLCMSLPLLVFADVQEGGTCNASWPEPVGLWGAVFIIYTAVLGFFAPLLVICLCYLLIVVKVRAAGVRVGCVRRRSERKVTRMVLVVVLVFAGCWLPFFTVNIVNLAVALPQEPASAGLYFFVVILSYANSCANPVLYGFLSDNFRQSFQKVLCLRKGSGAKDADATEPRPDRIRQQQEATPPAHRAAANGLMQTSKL

[3] = molecular target: Somatostatin receptor type 2 (Homo sapiens, UniProt P30874)
Sequence of Somatostatin receptor type 2 (P30874 whole entry): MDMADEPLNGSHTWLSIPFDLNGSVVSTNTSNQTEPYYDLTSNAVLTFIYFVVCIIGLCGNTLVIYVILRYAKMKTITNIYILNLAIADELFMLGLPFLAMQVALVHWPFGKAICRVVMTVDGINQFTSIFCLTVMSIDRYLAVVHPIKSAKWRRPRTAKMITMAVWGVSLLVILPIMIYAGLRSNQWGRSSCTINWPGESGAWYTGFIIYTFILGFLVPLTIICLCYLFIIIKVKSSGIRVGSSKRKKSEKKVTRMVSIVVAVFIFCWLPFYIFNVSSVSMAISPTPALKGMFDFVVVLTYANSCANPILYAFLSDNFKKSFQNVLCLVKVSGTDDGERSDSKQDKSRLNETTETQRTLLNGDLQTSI

[4] = molecular target: Somatostatin receptor type 1 (Homo sapiens, UniProt P30872)
Sequence of Somatostatin receptor type 1 (P30872 whole entry): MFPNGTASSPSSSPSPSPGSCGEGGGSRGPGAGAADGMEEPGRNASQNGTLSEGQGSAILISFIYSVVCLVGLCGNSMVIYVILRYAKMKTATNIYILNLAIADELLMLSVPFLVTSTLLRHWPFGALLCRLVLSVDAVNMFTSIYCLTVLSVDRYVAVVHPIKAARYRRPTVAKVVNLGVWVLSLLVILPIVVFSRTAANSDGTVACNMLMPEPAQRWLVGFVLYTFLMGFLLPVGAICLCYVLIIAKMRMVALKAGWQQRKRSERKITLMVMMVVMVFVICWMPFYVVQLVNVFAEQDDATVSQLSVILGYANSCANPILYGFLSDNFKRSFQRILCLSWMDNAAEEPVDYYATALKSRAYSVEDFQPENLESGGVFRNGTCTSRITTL

[5] = molecular target: Somatostatin receptor type 3 (Homo sapiens, UniProt P32745)
Sequence of Somatostatin receptor type 3 (P32745 whole entry): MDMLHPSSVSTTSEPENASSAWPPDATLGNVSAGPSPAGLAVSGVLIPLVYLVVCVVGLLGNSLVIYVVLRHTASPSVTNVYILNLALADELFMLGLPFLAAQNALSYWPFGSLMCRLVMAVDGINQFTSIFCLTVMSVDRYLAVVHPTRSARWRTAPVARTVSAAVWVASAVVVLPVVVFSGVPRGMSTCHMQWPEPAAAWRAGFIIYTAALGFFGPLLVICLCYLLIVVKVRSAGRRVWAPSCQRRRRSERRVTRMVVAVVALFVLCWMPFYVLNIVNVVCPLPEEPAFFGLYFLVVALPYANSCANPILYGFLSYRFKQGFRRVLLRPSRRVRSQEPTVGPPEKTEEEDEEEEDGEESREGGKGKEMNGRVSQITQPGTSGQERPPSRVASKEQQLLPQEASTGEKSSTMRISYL

pKi [1]	pKi [2]	pKi [3]	pKi [4]	pKi [5]	SMILES
7.09	9.40	7.28	8.48	7.19	C[C@H](N)COC(=O)[C@H](CCCCN)NC(=O)Cc1c(-c2ccc3ccccc3c2)[nH]c2c1ccc1ccccc12
6.51	5.37	10.30	5.56	6.14	CC(c1c[nH]c2ccccc12)C(NC(=O)N1CCC(n2c(=O)[nH]c3ccccc32)CC1)C(=O)NCC1CCCC(CN)C1 (stereo unspecified) [CAS_5311372]
9.30	9.40	9.22	8.15	9.22	CSCC[C@H](NC(=O)[C@H](CCCN=C(N)N)NC(=O)[C@@H](N)CC(=O)O)C(=O)N1CCC[C@H]1C(=O)N[C@H]1CSSC[C@@H](C(=O)N[C@@H](CCCCN)C(=O)O)NC(=O)[C@H](CO)NC(=O)[C@H](CO)NC(=O)[C@H](Cc2ccccc2)NC(=O)[C@H]([C@@H](C)O)NC(=O)[C@H](CCCCN)NC(=O)[C@H](Cc2c[nH]c3ccccc23)NC(=O)[C@H](Cc2ccccc2)NC(=O)[C@H](Cc2ccccc2)NC(=O)[C@H](CC(N)=O)NC(=O)[C@H](CCCN=C(N)N)NC1=O [Cortistatin]
9.15	5.41	5.33	6.70	5.89	COC(=O)C(CCCNC(=N)N)NC(=O)CCCc1c(-c2ccccc2)[nH]c2c(F)cc(F)cc12 [L-803,087]
6.77	5.44	5.73	8.85	5.65	CC(CCN)CC(C)(C)CNC(=O)[C@@H](Cc1cccc2ccccc12)NC(=O)N(CCc1ccccc1)CCc1ccccn1 (stereo partly drawn) [L-797591]
–	–	–	6.00	7.57	CC(C)[C@@H]1NC(=O)[C@H](CCCCN)NC(=O)[C@@H](Cc2c[nH]c3ccccc23)NC(=O)[C@H](Cc2ccc(O)cc2)NC(=O)[C@H](C)N(C)C(=O)[C@H](Cc2ccccc2)NC1=O [seglitide]

SMILES	pKi [1]	pKi [2]	pKi [3]	pKi [4]	pKi [5]
CCCCC(NC(=O)NC(Cc1ccccc1)C(=O)Nc1ccc([N+](=O)[O-])cc1)C(=O)NC(CCCCN)C(=O)OC (stereo unspecified) [CAS_5311373] ({pNA-Phe-CO}-[Nle]-Lys-OMe; configuration not given here)	5.06	5.92	< 5.00	5.90	7.62
CC(C)NCc1ccc(C[C@@H]2NC(=O)[C@@H](Cc3c[nH]c4ccccc34)NC(=O)[C@H](Cc3ccccc3)NC(=O)[C@H](Cc3ccccc3)NC(=O)[C@H](CCCCN)NC(=O)[C@@H](N)CSSC[C@@H](C(=O)O)NC(=O)[C@H](CO)NC(=O)[C@H]([C@@H](C)O)NC(=O)[C@H](Cc3ccccc3)NC(=O)[C@H]([C@@H](C)O)NC2=O)cc1 [CH-275] (HELM PEPTIDE1{C.K.F.F.[dW].[CC(C)NCc1ccc(C[C@H](N[*:1])C(=O)[*:2])cc1].T.F.T.S.C}$PEPTIDE1,PEPTIDE1,1:R3-11:R3$$$V2.0)	8.37	6.00	–	8.49	6.00
